# Test results: publication PMC11989239, “Structure–Property Relationships in Novel Series of Photoswitchable Local Anesthetic Ethercaine Derivatives: Emphasis on Biological and Photophysical Properties” (International Journal of Molecular Sciences, 2025)
# Structures can show the parent of a compound that is named as a salt.
# Tests used:
# [1] = Z-E isomerization half-life by UV/Vis spectrophotometry after 365 nm irradiation; format: physicochemical; conditions: for τ1/2 (DMSO), Z-E isomerization half-life: RT, after 365 nm 5 min; for τ1/2 (Aqueous Kolliphor ELP), Z-E isomerization half-life: aqueous 4% Kolliphor ELP solution
# Procedure: As one of the main physicochemical properties of photopharmacological agents, the Z-E half-life was investigated, which determines the stability of the Z-isomer. The Z-E half-lifes were measured using UV/Vis spectrophotometry, converting the compound to the Z-isomer by irradiating with UV light and observing the change in absorption intensity due to reverse Z-E relaxation.
# Z-E isomerization half-life was determined using UV/Vis spectroscopy. Solutions were prepared and kept in the dark at RT before the experiment. First, the spectrum in the dark was registered ( PSSdark) , which corresponds to the photostationary state (PSS) with E-isomer predominance. Then, the cuvette with the solution was irradiated with UV light (λ = 365 nm) for 5 min to give the PSS with Z-isomer predominance. The corresponding spectrum was registered ( PSS365nm) . During the subsequent isomerization, the kinetics of changes in the absorption value were recorded at the wavelength of the absorption maximum corresponding to the E-isomer ( λmax(E)) . Then, lnAt/A0 values were calculated using the Equation (1):(1) lnAt/A0=lnAbsPSS(dark)−Abstime/AbsPSS(dark)−AbsPSS(365nm), where AbsPSS(dark) , AbsPSS(365nm), and Abstime are absorbance values at λmax(E) in the dark at the beginning of the experiment, after UV light (λ = 365 nm) irradiation, and at different time points from 0 to 60 min, respectively. Then, a graph was plotted depending on lnAt/A0 values from time, the trend line was calculated, and a first-order rate constant (k) for the thermal back Z-E isomerization reaction was obtained as the slope of the trend line.
# For a first-order reaction, half-life t1/2 can be calculated using the Equation (2):(2) t1/2=ln2/k
# [2] = In vitro cytotoxicity, MTT test, 24 h incubation; format: cell-based, human; conditions: human, dermal fibroblast cells (DF2), DF2 fibroblasts
# Procedure: (§1) The culture of dermal fibroblast cells (DF2) was obtained from the collection of the Institute of Cytology of the Russian Academy of Sciences (Saint Petersburg, Russia). The cells were cultured in plastic vials with a cell growth surface of 25 cm^2 (Costar, Richmond, VA, USA) on DMEM/F12 medium with the addition of L-glutamine and 10% fetal bovine serum (FBS) (PanEco, Moscow, Russia). The cells were cultured at 37 °C in a humid atmosphere with a content of 5% CO2 (Binder CO2 incubator, Germany). Cell lines from 3 to 7 passages were used in the work. To conduct experiments to evaluate the cytotoxicity of compounds, cells were sieved into 96-well culture plates at a concentration of 10^5 cells per ml, incubated at 37 °C (humidified atmosphere, 5% carbon dioxide) for 24–28 h. Further, 50 µL of the studied substances was added. The cells were incubated with the compounds for 24 h at 37 °C. Next, the cytotoxic effect of the substances was evaluated by a colorimetric method using an MTT test and visually, using an inverted microscope. The criterion for evaluating the specific activity of the compound was the value of IC50, the concentration at which 50% death of culture cells was noted.
# rabbit eye cornea = experiment: Surface anesthesia on the rabbit cornea, Regnier method (Regnier index); format: in vivo; conditions: for Local Anesthetic Activity (Regnier Index, Min—13, Max—1300) In the Dark / Local Anesthetic Activity (Regnier Index, Min—13, Max—1300) Under Irradiation (λ = 365 nm): 1% solution, 0.2 mL instilled, mean ± SD; for Local Anesthetic Activity (Regnier Index, Min—13, Max—1300) In the Dark: in the dark (E-form predominance); for Local Anesthetic Activity (Regnier Index, Min—13, Max—1300) Under Irradiation (λ = 365 nm): solution irradiated with UV 365 nm (Z-form predominance)
# Procedure: Thus, the main biological property investigated in this work was the local anesthetic activity of the new derivatives in the dark (with a predominance of the E-form) and under irradiation (with a predominance of the Z-form). The evaluation of local anesthetic activity was conducted on the rabbit cornea using the Regnier method. […] RI values in darkness (451 ± 40) and under UV light irradiation (469 ± 37) for a 2% solution of lidocaine, used as a reference drug, were obtained previously and are independent of light exposure. A 4% aqueous solution of Kolliphor® ELP, used for solubilizing ethercaine and its derivatives and lacking intrinsic local anesthetic activity, was employed as a negative control. In vitro cytotoxicity studies were conducted to initially assess the safety of the compounds.
# Non-anesthetized, mature male rabbits of a Soviet chinchilla breed weighing 2–3 kg, obtained from the KrolInfo farm (Orekhovo-Zuyevo, Russia), were used in this study. Animals were kept under standard conditions (humidity 50–60%, temperature 19–22 °C). A 12-h lighting cycle was maintained. Each animal was kept in a separate cage. Animals had ad libitum access to standard extruded feed “CHARA” (CJSC “Assortiment-Agro”, Turakovo Village, Moscow region, Russia) and clean drinking water. Water treatment was performed using a “7 TECHNOCOM” block modular system (LLC “7 TECH”, Moscow, Russia). For in vivo, surface anesthesia measurements, an in-house-made anesthesiometer with a fixed length of a nylon filament (l = 1.0 cm, d = 0.125 mm) was used. Statistical analysis was performed, and figures were plotted using the Python programming language’s standard functions and a Matplotlib package (Version 3.8) for Python. All biological data conformed to a normal distribution (Shapiro–Wilk’s W test, p > 0.05). All data are expressed as the mean ± standard deviation.
# For determination of the rabbit eye cornea’s sensitivity using the surface anesthesia method, 12 rabbits with a basic sensitivity threshold (sensitivity threshold of the eye cornea to tactile impact of the anesthesiometer) of 1–2 touches were selected. They were used in experiments repeatedly with an interval of at least 5 days between the experiments. Each eye was considered as a separate experimental point. Three animals were used in each of the experimental groups (n = 6). Two animals (n = 4) were used in each of the negative control groups and in each of experimental groups with UV irradiation due to the expected lack of the effect and to minimize the number of animals in the experiment. Animals were randomly divided into groups. Before an experiment, the animals were immobilized, leaving the head free. Before each experiment, the animals’ eyelashes were cut out, and the basic threshold of sensitivity of the eye cornea to tactile contact was determined using an anesthesiometer.
# The irradiation modes were described earlier. Experiments with animals were carried out in a darkened room with a 50W LED light source (λ = 625 nm), which lies outside the absorption bands of the UV/Vis spectrum of the test compound. Before the experiments, solutions of test compounds were irradiated for 5 min with UV light (λ = 365 nm, LED flashlight, 0.5 W).
# The adaptation of a model of surface anesthesia on the rabbit’s cornea using the Regnier method for the study of light-controlled local anesthetics was described earlier. The test solution (0.2 mL) of the required concentration (2% for the lidocaine or 1% for the ethercaine and its derivatives) was instilled into each conjunctival sac. After that, the sensitivity threshold of the eye cornea to tactile impact was determined. The first determination was performed at the 8th minute of the experiment and then at the 10th, 12th, 15th, 20th, 25th, 30th, 35th, 40th, 45th, 50th, 55th, and 60th min (13 values overall). […]
# [3] = tested on: human dermal fibroblasts (DF2); experiment: In vitro cytotoxicity, MTT test, 24 h incubation; format: cell-based
# Procedure: as §1
"τ1/2 (Aqueous Kolliphor ELP column), Z-E isomerization half-life ([1]; value obtained for the solution in water)",Compound,"τ1/2 (DMSO), Z-E isomerization half-life [1]","τ1/2 (Aqueous Kolliphor ELP), Z-E isomerization half-life [1]",IC50 at 24 h [2],Decrease in Regnier index under UV light irradiation (365 nm) versus darkness (rabbit eye cornea; dark vs 365 nm),IC50 [3],"Local Anesthetic Activity (Regnier Index, Min—13, Max—1300) In the Dark (rabbit eye cornea)","Local Anesthetic Activity (Regnier Index, Min—13, Max—1300) Under Irradiation (λ = 365 nm) (rabbit eye cornea)"
–,"c1ccc(/N=N/c2ccc(OCCN3CCOCC3)cc2)cc1 [Compound 1, Ethercaine hydrochloride]",2.1 h,0.833 h,210 µM,19 fold,–,–,–
–,"c1ccc(/N=N/c2ccccc2OCCN2CCOCC2)cc1 [Compound 9a, 2-(2-(N-morpholino)-ethoxy)-azobenzene hydrochloride]",17.2 h,125 h,> 1000 µM,–,–,–,–
–,"c1ccc(/N=N/c2cccc(OCCN3CCOCC3)c2)cc1 [Compound 9b, 3-(2-(N-morpholino)-ethoxy)-azobenzene hydrochloride]",26.8 h,437 h,240 µM,–,–,–,–
3.5 h,"CN1CCN(CCOc2ccc(/N=N/c3ccccc3)cc2)CC1 [Compound 14, 4-(2-(4-Methyl-1-Piperazino)-Ethoxy)-Azobenzene Dihydrochloride]",18.6 h,–,60 µM,–,–,–,–
–,"CCN(CC)CCOc1ccc(N=Nc2ccccc2)cc1.Cl [Compound 16, 4-(2-(N,N-Diethylamino)Ethoxy)Azobenzene Hydrochloride]",15.6 h,6.0 h,90 µM,–,–,–,–
–,"Cl.Fc1cc(OCCN2CCOCC2)ccc1N=Nc1ccccc1 [Compound 20a, 2-fluoro-4-(2-(N-morpholino)-ethoxy)-azobenzene hydrochloride]",7.8 h,2.5 h,–,–,190 µM,509 ± 34 (n = 6),64 ± 15 (n = 4)
–,"Cl.Fc1cc(OCCN2CCOCC2)cc(F)c1N=Nc1ccccc1 [Compound 20b, 2,6-difluoro-4-(2-(N-morpholino)-ethoxy)-azobenzene hydrochloride]",456 h,1.9 h,–,–,180 µM,538 ± 37 (n = 6),58 ± 8 (n = 4)
–,"Cl.Fc1ccccc1N=Nc1ccc(OCCN2CCOCC2)cc1 [Compound 20c, 2′-fluoro-4-(2-(N-morpholino)-ethoxy)-azobenzene hydrochloride]",3.6 h,0.4 h,–,–,190 µM,590 ± 24 (n = 6),70 ± 7 (n = 4)
–,"Cl.Fc1ccccc1N=Nc1ccc(OCCN2CCOCC2)cc1F [Compound 20d, 2,2′-difluoro-4-(2-(N-morpholino)-ethoxy)-azobenzene hydrochloride]",8.1 h,2.3 h,–,–,190 µM,419 ± 57 (n = 6),84 ± 8 (n = 4)
–,"Cl.Fc1ccccc1N=Nc1c(F)cc(OCCN2CCOCC2)cc1F [Compound 20e, 2,2′,6-trifluoro-4-(2-(N-morpholino)-ethoxy)-azobenzene hydrochloride]",703 h,60 h,–,–,190 µM,395 ± 72 (n = 6),59 ± 18 (n = 4)
–,"Cl.Fc1cccc(F)c1N=Nc1ccc(OCCN2CCOCC2)cc1 [Compound 20f, 2′,6′-difluoro-4-(2-(N-morpholino)-ethoxy)-azobenzene hydrochloride]",24 h,1.0 h,–,–,210 µM,570 ± 87 (n = 6),76 ± 19 (n = 4)
–,"Cl.Fc1cc(OCCN2CCOCC2)ccc1N=Nc1c(F)cccc1F [Compound 20g, 2,2′,6′-trifluoro-4-(2-(N-morpholino)-ethoxy)-azobenzene hydrochloride]",137 h,5.0 h,–,–,180 µM,437 ± 37 (n = 6),45 ± 9 (n = 4)
–,"Cl.Fc1cccc(F)c1N=Nc1c(F)cc(OCCN2CCOCC2)cc1F [Compound 20h, 2,2′,6,6′-tetrafluoro-4-(2-(N-morpholino)-ethoxy)-azobenzene hydrochloride]",1190 h,281 h,–,–,440 µM,353 ± 10 (n = 6),35 ± 7 (n = 4)
–,"Cc1cnc(/N=N/c2ccc(OCCN3CCOCC3)cc2)s1 [Compound 25b, 2-(4-(2-(N-morpholino)-ethoxy)-phenylazo)-5-methylthiazole hydrochloride]",0.083 h,0.067 h,440 µM,–,–,–,–
